Reference: patent US20100298340A1, “Thiazol-Guanidine Derivatives Useful As A (Beta)-Related Pathologies” (AstraZeneca AB, priority 2006, published 2010)

Molecular target: T1, human β-Secretase (Homo sapiens, UniProt P56817)
T1 construct: The soluble part of the human β-Secretase (AA 1-AA 460) was cloned; Fc domain of IgG1 (C); made in house
Test: TR-FRET Assay
Assay type: biochemical
Description: The enzyme used in the IGEN Cleavage-, Fluorescent-, TR-FRET- and the BiaCore assay is described as follows:
The soluble part of the human β-Secretase (AA 1-AA 460) was cloned into the ASP2-Fc10-1-IRES-GFP-neoK mammalian expression vector. The gene was fused to the Fc domain of IgG1 (affinity tag) and stably cloned into HEK 293 cells. Purified sBACE-Fc is stored in Tris buffer, pH 9.2 and has a purity of 95%.
Dilute the enzyme (truncated form) to 6 μg/mL (stock 1.3 mg/mL) and the substrate (Europium)CEVNLDAEFK(Qsy7) to 200 nM (stock 60 μM) in reaction buffer (NaAcetate, chaps, triton x-100, EDTA pH4.5). The Biomek FX is used for all liquid handling and the enzyme and substrate solutions are kept on ice until they are placed in Biomek FX. Enzyme (9 μl) is added to the plate then 1 μl of compound in dimethylsulphoxide is added, mixed and pre-incubated for 10 minutes. Substrate (10 μl) is then added, mixed and the reaction proceeds in the dark for 15 minutes at room temperature. The reaction is stopped with the addition of Stop solution ([…] pH 9). The fluorescence of the product is measured on a Victor II plate reader with an excitation wavelength of 340 nm and an emission wavelength of 615 nm. The assay is done in a Costar 384 well round bottom, low volume, non-binding surface (Corning #3676). The final concentration of the enzyme is 0.3 nM; the final concentration of substrate is 100 nM (Km of ˜250 nM). The dimethylsulphoxide control defines the 100% activity level and 0% activity is defined by only addition of the peptide substrate.

T1 sequence (P56817 22-460): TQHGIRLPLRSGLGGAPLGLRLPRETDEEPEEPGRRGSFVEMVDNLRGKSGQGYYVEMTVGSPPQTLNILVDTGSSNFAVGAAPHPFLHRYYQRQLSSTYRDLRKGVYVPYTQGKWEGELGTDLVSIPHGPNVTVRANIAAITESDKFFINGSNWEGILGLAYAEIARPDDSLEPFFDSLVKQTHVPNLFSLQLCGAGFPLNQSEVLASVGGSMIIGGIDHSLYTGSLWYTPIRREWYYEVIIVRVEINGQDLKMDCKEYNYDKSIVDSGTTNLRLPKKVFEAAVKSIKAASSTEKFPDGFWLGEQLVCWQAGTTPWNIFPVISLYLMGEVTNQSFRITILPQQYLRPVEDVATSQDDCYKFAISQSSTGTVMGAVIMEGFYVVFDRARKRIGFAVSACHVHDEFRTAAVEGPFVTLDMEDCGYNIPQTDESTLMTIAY

Structure (SMILES)	IC50 [µM]
CCc1ccc2c(Cl)c(C(=O)Nc3cccc(-c4sc(NC(=N)N)nc4C)c3)sc2c1 [Example 18, N-[3-(2-{[Amino(imino)methyl]amino}-4-methyl-1,3-thiazol-5-yl)phenyl]-3-chloro-6-ethyl-1-benzothiophene-2-carboxamide]	6.03
CCc1nc(NC(=N)N)sc1-c1ccc(NCC2CCN(C(=O)OCc3ccccc3)CC2)cc1 [Example 20, Benzyl 4-({[4-(2-{[amino(imino)methyl]amino}-4-ethyl-1,3-thiazol-5-yl)phenyl]amino}methyl)piperidine-1-carboxylate]	5.01
Cc1nc(NC(=N)N)sc1-c1cccc(NC(=O)c2ccc(-c3csnn3)cc2)c1 [Example 17, N-[3-(2-{[Amino(imino)methyl]amino}-4-methyl-1,3-thiazol-5-yl)phenyl]-4-(1,2,3-thiadiazol-4-yl)benzamide]	4.47
